Assay results from ChEMBL document CHEMBL1201862, “PubChem BioAssay data set” (2004).
Where a name gives a salt, the structure may show the parent alone.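 Compound exposure: 48 hours, 5 concentrations, 96-well plates. At the GI50, growth is halved.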 Active and inactive are the calls of the source. Rule as the data show it: active = GI50 up to about 1.1 µM and inactive = higher.

Key:
Test in all cases: inhibition of tumour cell growth, NCI panel, 48 h
A549 = system: A549
CCRF-CEM = system: CCRF-CEM
COLO 205 = system: COLO 205
HT-29 = system: HT-29
MCF7 = system: MCF7
MDA-N = system: MDA-N
NCI-H226 = system: NCI-H226
NCI-H23 = system: NCI-H23
NCI-H522 = system: NCI-H522
NCI/ADR-RES = system: NCI/ADR-RES
OVCAR-3 = system: OVCAR-3
OVCAR-8 = system: OVCAR-8
RPMI-8226 = system: RPMI-8226
SF-268 = system: SF-268
SF-295 = system: SF-295
SK-MEL-5 = system: SK-MEL-5
T47D = system: T47D
U-251 = system: U-251
UACC-62 = system: UACC-62

CCOc1cc(-c2nc3ccccn3c2/N=C/c2cc(Br)ccc2O)ccc1O
GI50 (A549): 37.9 µM (inactive) | GI50 (CCRF-CEM): > 100 µM (inactive) | GI50 (COLO 205): > 100 µM (inactive) | GI50 (HT-29): 42.1 µM (inactive) | GI50 (MCF7): 13.9 µM (inactive) | GI50 (MDA-N): 46.1 µM (inactive) | GI50 (NCI-H226): 93.3 µM (inactive) | GI50 (NCI-H23): 39.8 µM (inactive) | GI50 (NCI-H522): 35.9 µM (inactive) | GI50 (NCI/ADR-RES): 27.7 µM (inactive) | GI50 (OVCAR-3): 9.29 µM (inactive) | GI50 (OVCAR-8): 21.2 µM (inactive) | GI50 (RPMI-8226): 26.5 µM (inactive) | GI50 (SF-268): 19.1 µM (inactive) | GI50 (SF-295): 58.2 µM (inactive) | GI50 (SK-MEL-5): 30.3 µM (inactive) | GI50 (T47D): 2.37 µM (inactive) | GI50 (U-251): 17.5 µM (inactive) | GI50 (UACC-62): 23.9 µM (inactive)

O=C1CCCNn2c(nc3ncccc3c2=O)N1
GI50 (A549): > 100 µM (inactive) | GI50 (CCRF-CEM): > 100 µM (inactive) | GI50 (COLO 205): > 100 µM (inactive) | GI50 (HT-29): > 100 µM (inactive) | GI50 (MCF7): > 100 µM (inactive) | GI50 (MDA-N): > 100 µM (inactive) | GI50 (NCI-H226): > 100 µM (inactive) | GI50 (NCI-H23): > 100 µM (inactive) | GI50 (NCI-H522): > 100 µM (inactive) | GI50 (NCI/ADR-RES): > 100 µM (inactive) | GI50 (OVCAR-3): > 100 µM (inactive) | GI50 (OVCAR-8): > 100 µM (inactive) | GI50 (RPMI-8226): > 100 µM (inactive) | GI50 (SF-268): > 100 µM (inactive) | GI50 (SF-295): > 100 µM (inactive) | GI50 (SK-MEL-5): > 100 µM (inactive) | GI50 (T47D): > 100 µM (inactive) | GI50 (U-251): > 100 µM (inactive) | GI50 (UACC-62): > 100 µM (inactive)

CCOC(=O)C(=NN(C)c1ncccc1N)C(=O)OCC
GI50 (A549): > 100 µM (inactive) | GI50 (CCRF-CEM): 37.5 µM (inactive) | GI50 (COLO 205): 14.4 µM (inactive) | GI50 (HT-29): 65.6 µM (inactive) | GI50 (MCF7): 20.5 µM (inactive) | GI50 (MDA-N): 34.8 µM (inactive) | GI50 (NCI-H226): 21.6 µM (inactive) | GI50 (NCI-H23): 45.5 µM (inactive) | GI50 (NCI/ADR-RES): 53.3 µM (inactive) | GI50 (OVCAR-3): 30.7 µM (inactive) | GI50 (OVCAR-8): 38.3 µM (inactive) | GI50 (RPMI-8226): 30.3 µM (inactive) | GI50 (SF-268): > 100 µM (inactive) | GI50 (SF-295): > 100 µM (inactive) | GI50 (SK-MEL-5): 68.4 µM (inactive) | GI50 (T47D): 25.9 µM (inactive) | GI50 (U-251): > 100 µM (inactive) | GI50 (UACC-62): > 100 µM (inactive)

CN1[C@@H]2C[C@@H](OC(=O)[C@H](CO)c3ccccc3)C[C@H]1[C@@H]1O[C@@H]12 [SCOPOLAMINE HYDROBROMIDE]
GI50 (A549): > 100 µM (inactive) | GI50 (CCRF-CEM): > 100 µM (inactive) | GI50 (COLO 205): > 100 µM (inactive) | GI50 (HT-29): > 100 µM (inactive) | GI50 (MCF7): > 100 µM (inactive) | GI50 (MDA-N): > 100 µM (inactive) | GI50 (NCI-H226): > 100 µM (inactive) | GI50 (NCI-H23): > 100 µM (inactive) | GI50 (NCI-H522): > 100 µM (inactive) | GI50 (NCI/ADR-RES): > 100 µM (inactive) | GI50 (OVCAR-3): > 100 µM (inactive) | GI50 (OVCAR-8): > 100 µM (inactive) | GI50 (RPMI-8226): > 100 µM (inactive) | GI50 (SK-MEL-5): > 100 µM (inactive) | GI50 (T47D): > 100 µM (inactive) | GI50 (UACC-62): > 100 µM (inactive)

COC(=O)/C=C/c1ccc2nncnc2c1.COC(=O)/C=C\c1ccc2nncnc2c1
GI50 (A549): 21.2 µM (inactive) | GI50 (CCRF-CEM): > 100 µM (inactive) | GI50 (COLO 205): 21.6 µM (inactive) | GI50 (HT-29): 20 µM (inactive) | GI50 (MCF7): 42.5 µM (inactive) | GI50 (MDA-N): 20.9 µM (inactive) | GI50 (NCI-H226): > 100 µM (inactive) | GI50 (NCI-H23): 10 µM (inactive) | GI50 (NCI-H522): 28.5 µM (inactive) | GI50 (NCI/ADR-RES): 62.4 µM (inactive) | GI50 (OVCAR-3): 32.7 µM (inactive) | GI50 (OVCAR-8): 57.9 µM (inactive) | GI50 (RPMI-8226): > 100 µM (inactive) | GI50 (SF-268): 75.7 µM (inactive) | GI50 (SF-295): 23.4 µM (inactive) | GI50 (SK-MEL-5): 8.17 µM (inactive) | GI50 (T47D): 98.4 µM (inactive) | GI50 (U-251): 79.1 µM (inactive) | GI50 (UACC-62): 15.7 µM (inactive)

NC(CC(=O)O)(Cc1ccccc1)C(=O)O (stereo not drawn)
GI50 (A549): > 100 µM (inactive) | GI50 (CCRF-CEM): > 100 µM (inactive) | GI50 (COLO 205): > 100 µM (inactive) | GI50 (HT-29): > 100 µM (inactive) | GI50 (MCF7): > 100 µM (inactive) | GI50 (MDA-N): > 100 µM (inactive) | GI50 (NCI-H226): > 100 µM (inactive) | GI50 (NCI-H23): > 100 µM (inactive) | GI50 (NCI-H522): > 100 µM (inactive) | GI50 (NCI/ADR-RES): > 100 µM (inactive) | GI50 (OVCAR-3): > 100 µM (inactive) | GI50 (OVCAR-8): > 100 µM (inactive) | GI50 (RPMI-8226): > 100 µM (inactive) | GI50 (SF-295): > 100 µM (inactive) | GI50 (SK-MEL-5): > 100 µM (inactive) | GI50 (T47D): > 100 µM (inactive) | GI50 (U-251): > 100 µM (inactive) | GI50 (UACC-62): > 100 µM (inactive)

CC/C=C/C(CC)C/C(C)=C\[C@]1(CC)C[C@H](CC)[C@H](CC(=O)O)OO1 (stereo partly drawn)
GI50 (A549): 0.121 µM (active) | GI50 (CCRF-CEM): 0.105 µM (active) | GI50 (COLO 205): 1.32 µM (inactive) | GI50 (HT-29): 0.499 µM (active) | GI50 (MCF7): 1.77 µM (inactive) | GI50 (MDA-N): 1.36 µM (inactive) | GI50 (NCI-H226): 1.89 µM (inactive) | GI50 (NCI-H23): 1.61 µM (inactive) | GI50 (NCI-H522): 0.178 µM (active) | GI50 (NCI/ADR-RES): 0.453 µM (active) | GI50 (OVCAR-3): 1.15 µM (inactive) | GI50 (OVCAR-8): 1.09 µM (active) | GI50 (RPMI-8226): < 0.01 µM (active) | GI50 (SF-268): 1.39 µM (inactive) | GI50 (SF-295): 0.324 µM (active) | GI50 (SK-MEL-5): 1.27 µM (inactive) | GI50 (T47D): 1.34 µM (inactive) | GI50 (U-251): 0.491 µM (active) | GI50 (UACC-62): 1.66 µM (inactive)
